Source: ChEMBL document CHEMBL5356956, “Optimizing and characterizing 4-methyl substituted pyrazol-3-carboxamides leading to the peripheral cannabinoid 1 receptor inverse agonist TM38837” (Bioorg Med Chem Lett, 2024)
Converted amounts (≈) assume the structure as drawn.

What was measured:
[1] = Lipophilicity, logD of compound by chromatographic analysis; type: physicochemical
Cannabinoid receptor 1 [2] = target: T1, Cannabinoid receptor 1 (Homo sapiens, UniProt P21554); assay: Inverse agonist activity at human CB1 receptor expressed in CHO-K1 cell membrane by GTP-gamma-S assay; type: functional, cell membranes
Cannabinoid receptor 1 [3] = target: T1, Cannabinoid receptor 1; assay: Inverse agonist activity at human CB1 receptor expressed in African green monkey COS7 cells co-expressing G-protein in presence of CP55940 by IP3 assay; type: functional, cell membranes, Membrane
[4] = Solubility of compound; type: physicochemical
[5] = Clearance in rat hepatocytes assessed per million cells; type: ADME, cell-based, Hepatocyte
[6] = Subchronic toxicity in DIO mouse assessed as reduction in body weight at 10 mg/kg, po measured after 7 days; type: organism-based; parameters: scale not given: the % may be the effect or the level left; settings: in vivo, 168 h, time 7 day
CYP2C9 = CYP2C9 (Homo sapiens, UniProt P11712); assay: Inhibition of CYP2C9 (unknown origin) at 10 uM relative to control; type: ADME
Cannabinoid receptor 1 [7] = target: T1, Cannabinoid receptor 1; assay: Antagonist activity at human CB1 receptor expressed in CHO-K1 cell membrane in presence of CP55940 by GTP-gamma-S assay; type: functional, cell membranes
Cannabinoid receptor 2 = Cannabinoid receptor 2 (Homo sapiens, UniProt P34972); assay: Inverse agonist activity at human CB2 receptor expressed in CHO-K1 cell membrane in presence of CP55940 by GTP-gamma-S assay; type: functional, cell membranes
Cannabinoid receptor 2, sequence (P34972 whole entry): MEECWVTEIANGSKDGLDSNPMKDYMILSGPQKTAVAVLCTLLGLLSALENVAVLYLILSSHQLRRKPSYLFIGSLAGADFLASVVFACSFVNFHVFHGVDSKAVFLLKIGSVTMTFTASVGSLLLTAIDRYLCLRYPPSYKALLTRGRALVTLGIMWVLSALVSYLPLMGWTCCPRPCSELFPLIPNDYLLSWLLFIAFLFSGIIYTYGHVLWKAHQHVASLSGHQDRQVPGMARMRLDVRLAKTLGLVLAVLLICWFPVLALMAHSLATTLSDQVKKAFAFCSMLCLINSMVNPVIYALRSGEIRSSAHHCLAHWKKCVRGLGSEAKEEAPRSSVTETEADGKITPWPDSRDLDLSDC

T1 sequence (P21554 whole entry): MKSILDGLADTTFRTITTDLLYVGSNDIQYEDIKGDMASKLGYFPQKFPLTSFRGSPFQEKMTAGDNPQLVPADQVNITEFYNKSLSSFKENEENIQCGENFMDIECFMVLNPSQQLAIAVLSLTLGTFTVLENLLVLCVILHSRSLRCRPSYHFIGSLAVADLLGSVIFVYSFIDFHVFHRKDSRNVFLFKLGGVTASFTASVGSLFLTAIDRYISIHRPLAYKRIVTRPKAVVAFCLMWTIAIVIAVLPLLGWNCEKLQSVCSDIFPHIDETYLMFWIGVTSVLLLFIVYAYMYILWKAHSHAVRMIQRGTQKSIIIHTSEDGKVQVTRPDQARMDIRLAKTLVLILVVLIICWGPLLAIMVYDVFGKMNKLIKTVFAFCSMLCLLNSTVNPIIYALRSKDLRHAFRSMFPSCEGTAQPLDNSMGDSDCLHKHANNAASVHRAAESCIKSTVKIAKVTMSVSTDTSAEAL
CYP2C9, sequence (P11712 whole entry): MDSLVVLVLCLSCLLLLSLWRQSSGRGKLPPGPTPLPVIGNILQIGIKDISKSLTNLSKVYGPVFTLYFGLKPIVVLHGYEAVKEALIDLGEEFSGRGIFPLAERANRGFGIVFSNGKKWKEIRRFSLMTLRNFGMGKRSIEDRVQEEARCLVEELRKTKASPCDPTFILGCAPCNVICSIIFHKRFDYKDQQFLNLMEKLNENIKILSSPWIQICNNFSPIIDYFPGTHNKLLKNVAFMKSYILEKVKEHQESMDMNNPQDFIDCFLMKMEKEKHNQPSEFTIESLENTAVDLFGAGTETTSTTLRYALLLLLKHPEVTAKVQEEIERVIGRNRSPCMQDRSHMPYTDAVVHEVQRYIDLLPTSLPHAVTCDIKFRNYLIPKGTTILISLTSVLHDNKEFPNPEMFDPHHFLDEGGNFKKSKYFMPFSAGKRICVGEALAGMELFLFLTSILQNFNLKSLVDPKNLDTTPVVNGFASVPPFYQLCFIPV

Compound	chromatographic logD [1]	IC50 (Cannabinoid receptor 1 [2]) [µM]	IC50 (Cannabinoid receptor 1 [3]) [µM]	solubility [4] [µM]	CLH [5] [µL/min/1e6 cells]	Activity [6] [%]	inhibition at 10 µM (CYP2C9) [%]	IC50 (Cannabinoid receptor 1 [7]) [µM]	IC50 (Cannabinoid receptor 2) [µM]
O=C(c1nn(-c2ccccc2Cl)c(-c2ccc(Cl)cc2)c1Cc1nn[nH]n1)N1CCC(Oc2ccc(F)cc2)CC1	2.4	0.17	0.041	500 (≈ 296 µg/mL)	13				
O=C(c1nn(-c2ccccc2Cl)c(-c2ccc(Cl)cc2)c1Cc1nn[nH]n1)N1CCC(Oc2ccc(C(F)(F)F)cc2)CC1	2.9	0.12	0.023	140 (≈ 89.9 µg/mL)	12				
O=C(O)Cc1c(C(=O)N2CCC(Oc3cccc(F)c3)CC2)nn(-c2ccccc2Cl)c1-c1ccc(Cl)cc1	3.3		0.015	155 (≈ 88.1 µg/mL)		< 2			
CS(=O)(=O)N1CCC(NC(=O)c2nn(-c3ccccc3Cl)c(-c3ccc(Cl)cc3)c2CC(N)=O)CC1	2.4	0.0095		61 (≈ 33.6 µg/mL)	8				
O=C(O)Cc1c(C(=O)N2CCC(Oc3cc(F)cc(F)c3)CC2)nn(-c2ccccc2Cl)c1-c1ccc(Cl)cc1	3.2		0.008	171 (≈ 100 µg/mL)					
NC(=O)Cc1c(C(=O)N2CCC(O)(c3ccccc3F)CC2)nn(-c2ccccc2Cl)c1-c1ccc(Cl)cc1	2.8	0.0005		66 (≈ 37.5 µg/mL)					
O=C(O)Cc1c(C(=O)N2CCC(Oc3cccc(F)c3F)CC2)nn(-c2ccccc2Cl)c1-c1ccc(Cl)cc1	2.5		0.015	500 (≈ 293 µg/mL)					
O=C(O)Cc1c(C(=O)N2CCC(Oc3ccc(Cl)cc3)CC2)nn(-c2ccccc2Cl)c1-c1ccc(Cl)cc1	2.7	0.03	0.011		7				
O=C(c1nn(-c2ccccc2Cl)c(-c2ccc(Cl)cc2)c1Cc1nn[nH]n1)N1CCC(Oc2cc(F)cc(F)c2)CC1	2.6	0.069	0.023	317 (≈ 194 µg/mL)	16		32		
C[C@@H](NC(=O)c1nn(-c2ccccc2Cl)c(-c2ccc(Cl)cc2)c1Cc1nn[nH]n1)c1ccc(Br)cc1	2.4		0.072						
NC(=O)Cc1c(C(=O)N2CCC(O)(c3cccc(F)c3)CC2)nn(-c2ccccc2Cl)c1-c1ccc(Cl)cc1	2.8	0.0005		62 (≈ 35.2 µg/mL)	16				
O=C(c1nn(-c2ccccc2Cl)c(-c2ccc(Cl)cc2)c1Cc1nn[nH]n1)N1CCC(Oc2ccc(Cl)cc2)CC1	2.6	0.047	0.03	204 (≈ 124 µg/mL)	77		38		
C[C@@H]1CC(O)(c2cccc(F)c2)C[C@H](C)N1C(=O)c1nn(-c2ccccc2Cl)c(-c2ccc(Cl)cc2)c1CC(N)=O (some centres undefined)	3.5	0.0022		79 (≈ 47 µg/mL)					
Cc1c(C(=O)NN2CCCCC2)nn(-c2ccc(Cl)cc2Cl)c1-c1ccc(Cl)cc1 [RIMONABANT]						14.5			
O=C(c1nn(-c2ccccc2Cl)c(-c2ccc(Cl)cc2)c1Cc1nn[nH]n1)N1CCC(c2ccccc2F)CC1	2.5	0.13	0.023	474 (≈ 273 µg/mL)	33				
NC(=O)Cc1c(C(=O)N2CCC(Oc3cccc(F)c3)CC2)nn(-c2ccccc2Cl)c1-c1ccc(Cl)cc1	3.7	0.0003		9 (≈ 5.11 µg/mL)	48				
O=C(O)Cc1c(C(=O)N2CCC(Oc3ccc(F)c(F)c3)CC2)nn(-c2ccccc2Cl)c1-c1ccc(Cl)cc1	2.9		0.012	500 (≈ 293 µg/mL)		< 2			
O=C(O)Cc1c(C(=O)N2CCC(c3cccc(F)c3)CC2)nn(-c2ccccc2Cl)c1-c1ccc(Cl)cc1	2.7	0.032	0.0026					0.0081	> 10
C[C@@H]1C[C@](O)(c2cccc(F)c2)CCN1C(=O)c1nn(-c2ccccc2Cl)c(-c2ccc(Cl)cc2)c1CC(N)=O	3	0.0004		64 (≈ 37.2 µg/mL)	24				
N=C(Cc1c(C(=O)NN2CCCCC2)nn(-c2ccccc2Cl)c1-c1ccc(Cl)cc1)NO	2.9								
N#Cc1cccc(C2(O)CCN(C(=O)c3nn(-c4ccccc4Cl)c(-c4ccc(Cl)cc4)c3CC(N)=O)CC2)c1	2.6	0.0004		70 (≈ 40.2 µg/mL)					
N#Cc1ccc(C2(O)CCN(C(=O)c3nn(-c4ccccc4Cl)c(-c4ccc(Cl)cc4)c3CC(N)=O)CC2)cc1	2.5	0.0007		73 (≈ 41.9 µg/mL)					

Compound	chromatographic logD [1]	IC50 (Cannabinoid receptor 1 [2]) [µM]	IC50 (Cannabinoid receptor 1 [3]) [µM]	solubility [4] [µM]	CLH [5] [µL/min/1e6 cells]	Activity [6] [%]	inhibition at 10 µM (CYP2C9) [%]	IC50 (Cannabinoid receptor 1 [7]) [µM]	IC50 (Cannabinoid receptor 2) [µM]
O=C(O)Cc1c(C(=O)N2CCC(Oc3ccc(OC(F)(F)F)cc3)CC2)nn(-c2ccccc2Cl)c1-c1ccc(Cl)cc1	3.2		0.01	176 (≈ 112 µg/mL)					
O=C(c1nn(-c2ccccc2Cl)c(-c2ccc(Cl)cc2)c1Cc1nn[nH]n1)N1CCC(Oc2cccc(F)c2)CC1	2.4	0.13	0.033	500 (≈ 296 µg/mL)	45		14		
C[C@@H]1CC(O)(c2ccccc2F)C[C@H](C)N1C(=O)c1nn(-c2ccccc2Cl)c(-c2ccc(Cl)cc2)c1CC(N)=O (some centres undefined)	3.6	0.0007		29 (≈ 17.3 µg/mL)					
O=C(c1nn(-c2ccccc2Cl)c(-c2ccc(Cl)cc2)c1Cc1nn[nH]n1)N1CCC(Oc2ccc(OC(F)(F)F)cc2)CC1	3	0.064	0.026	115 (≈ 75.7 µg/mL)	14		48		
O=C(c1nn(-c2ccccc2Cl)c(-c2ccc(Cl)cc2)c1Cc1nn[nH]n1)N1CCC(Oc2ccc(F)c(F)c2)CC1	2.5	0.08	0.035	421 (≈ 257 µg/mL)	45	< 2	0		
CC(C)c1noc(C2(O)CCN(C(=O)c3nn(-c4ccccc4Cl)c(-c4ccc(Cl)cc4)c3CC(N)=O)CC2)n1	3.2	0.0006		4 (≈ 2.33 µg/mL)	65				
O=C(c1nn(-c2ccccc2Cl)c(-c2ccc(Cl)cc2)c1Cc1nn[nH]n1)N1CCC(Oc2cccc(Cl)c2)CC1	2.7	0.095	0.024	201 (≈ 122 µg/mL)	15		35		
O=C(O)Cc1c(C(=O)N2CCC(Oc3ccc(F)cc3)CC2)nn(-c2ccccc2Cl)c1-c1ccc(Cl)cc1	3.6		0.006	118 (≈ 67.1 µg/mL)					
O=C(O)Cc1c(C(=O)N2CCC(Oc3ccc(Cl)cc3F)CC2)nn(-c2ccccc2Cl)c1-c1ccc(Cl)cc1	3.4		0.008	83 (≈ 50 µg/mL)	28				
C[C@@H](NC(=O)c1nn(-c2ccccc2Cl)c(-c2ccc(Cl)cc2)c1CC(N)=O)c1ccc(C(F)(F)F)nc1	3.3	0.0004		21 (≈ 11.8 µg/mL)	6				
CC(C)S(=O)(=O)N1CCC(NC(=O)c2nn(-c3ccccc3Cl)c(-c3ccc(Cl)cc3)c2CC(N)=O)CC1	2.8	0.0019		33 (≈ 19.1 µg/mL)	17				
C[C@@H](NC(=O)c1nn(-c2ccccc2Cl)c(-c2ccc(Cl)cc2)c1Cc1nn[nH]n1)c1ccc(F)c(Cl)c1	2.8	0.063	0.032			2.4			
O=C(O)Cc1c(C(=O)N2CCC(Oc3ccc(C(F)(F)F)cc3)CC2)nn(-c2ccccc2Cl)c1-c1ccc(Cl)cc1	3.1		0.007	374 (≈ 231 µg/mL)	17				
N#Cc1cccc(OC2CCN(C(=O)c3nn(-c4ccccc4Cl)c(-c4ccc(Cl)cc4)c3CC(=O)O)CC2)c1	3.3		0.053	107 (≈ 61.6 µg/mL)	26				
CC(=O)N1CCC(NC(=O)c2nn(-c3ccccc3Cl)c(-c3ccc(Cl)cc3)c2CC(N)=O)CC1	1.8	0.011		51 (≈ 26.2 µg/mL)	4				
N#Cc1ccc(CNC(=O)c2nn(-c3ccccc3Cl)c(-c3ccc(Cl)cc3)c2CC(N)=O)cc1	2.9	0.0003		16 (≈ 8.07 µg/mL)					
C[C@@H](NC(=O)c1nn(-c2ccccc2Cl)c(-c2ccc(Cl)cc2)c1Cc1nnn[nH]1)c1cccc(F)c1	2.1	0.086	0.064			5.2			
N=C(N)Cc1c(C(=O)Nc2ccc(F)cc2)nn(-c2ccccc2Cl)c1-c1ccc(Cl)cc1	2.5								> 10
CCN1C(=O)OC2(CCN(C(=O)c3nn(-c4ccccc4Cl)c(-c4ccc(Cl)cc4)c3CC(N)=O)CC2)C1=O	2.7	0.0013		28 (≈ 16 µg/mL)	21				
O=C(O)Cc1c(C(=O)N2CCC(Oc3cccc(Cl)c3)CC2)nn(-c2ccccc2Cl)c1-c1ccc(Cl)cc1	2.8	0.051	0.01		32				
O=C(O)Cc1c(C(=O)N2CCC(Oc3cccc(C(F)(F)F)c3)CC2)nn(-c2ccccc2Cl)c1-c1ccc(Cl)cc1	2.7		0.024	500 (≈ 309 µg/mL)	35				
O=C(c1nn(-c2ccccc2Cl)c(-c2ccc(Cl)cc2)c1Cc1nn[nH]n1)N1CCC(Oc2cccc(F)c2F)CC1	2.5	0.11	0.061	396 (≈ 242 µg/mL)	14				
